Laboratory results from patent EP4682145A1, “BENZOHETEROCYCLIC COMPOUND, AND PREPARATION METHOD THEREFOR AND USE THEREOF” (Cascade Pharmaceuticals, Inc., priority 2023, dated 2024).

Target: T1, human FFAR1 (GPR40) (Homo sapiens, UniProt O14842)
T1 construct: Flag; expressed in transfected cells; host or cells: HEK293T
Test: NFAT-RE-based reporter gene activity assay (Dual-Glo luciferase) for GPR40 agonistic activity in co-transfected HEK293T cells
Assay type: cell-based
Details: 4-hour treatment
How it was run: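 HEK293T cells co-transfected with human FFAR1, NFAT-RE firefly luciferase and TK-Renilla plasmids; 24 h later treated 4 h with 10 half-log compound dilutions from 1 µM. Firefly/Renilla ratio normalised to DMSO; EC50 from four-parameter fit.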

T1 sequence (O14842 whole entry): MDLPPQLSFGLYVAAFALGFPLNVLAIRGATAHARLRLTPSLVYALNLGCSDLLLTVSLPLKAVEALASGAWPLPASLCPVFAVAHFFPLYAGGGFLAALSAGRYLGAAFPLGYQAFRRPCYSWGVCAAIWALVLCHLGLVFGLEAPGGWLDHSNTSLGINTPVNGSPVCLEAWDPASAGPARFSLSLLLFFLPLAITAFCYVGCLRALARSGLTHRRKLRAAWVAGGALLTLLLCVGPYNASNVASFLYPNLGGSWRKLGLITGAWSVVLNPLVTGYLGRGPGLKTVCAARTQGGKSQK

Structure (SMILES) | EC50 [nM]
CCCC(C)(C)c1nnc(-c2c(C3CCN(c4cccc(OC)c4)CC3)oc3cc(C(CC(=O)O)C4CC4)ccc23)o1 (stereo not shown) [Compound 129] | 10 to 100
CCCCC(C)(C)c1nnc(-c2c(C3CCN(c4cccc(OC)c4)CC3)oc3cc(C(CC(=O)O)C4CC4)ccc23)o1 (stereo not shown) [Compound 130] | 10 to 100
CCCCCC(C)(C)c1nnc(-c2c(C3CCN(c4cccc(OC)c4)CC3)oc3cc(C(CC(=O)O)C4CC4)ccc23)o1 (stereo not shown) [Compound 131] | 10 to 100
COC(=O)C(C)(C)n1cc(-c2c(C3CCN(c4cccc(OC)c4)CC3)oc3cc(C(CC(=O)O)C4CC4)ccc23)cn1 (stereo not shown) [Compound 132] | 100 to 500
COc1cccc(N2CCC(c3oc4cc(C(CC(=O)O)C5CC5)ccc4c3-c3nnc(-c4ccccc4)o3)CC2)c1 (stereo not shown) [Compound 133] | 100 to 500
COc1cccc(N2CCC(c3oc4cc(C(CC(=O)O)C5CC5)ccc4c3-c3nnc(C4(C)CC4)o3)CC2)c1 (stereo not shown) [Compound 134] | 100 to 500
COc1cccc(N2CCC(c3oc4cc(C(CC(=O)O)C5CC5)ccc4c3-c3nnc(C(C)(C)CC4CCCCC4)o3)CC2)c1 (stereo not shown) [Compound 135] | 10 to 100
COc1cccc(N2CCC(c3oc4cc(C(CC(=O)O)C5CC5)ccc4c3-c3nnc(C(C)(C)CN4CCCCC4)o3)CC2)c1 (stereo not shown) [Compound 137] | 10 to 100
COc1cccc(N2CCC(c3oc4cc(C(CC(=O)O)C5CC5)ccc4c3-c3nnc(C45CC6CC(CC(C6)C4)C5)o3)CC2)c1 (stereo not shown) [Compound 139] | 100 to 500
COc1cccc(N2CCC(c3oc4cc(C(CC(=O)O)C5CC5)ccc4c3-c3nnc(C4(C)CCCCC4)o3)CC2)c1 (stereo not shown) [Compound 140] | 100 to 500
COc1cccc(N2CCC(c3oc4cc([C@@H](CC(=O)O)C5CC5)ccc4c3-c3nnc(C(C)(C)C)o3)CC2)c1F [Compound 141] | ≤ 10
COc1ccc(F)c(N2CCC(c3oc4cc([C@@H](CC(=O)O)C5CC5)ccc4c3-c3nnc(C(C)(C)C)o3)CC2)c1 [Compound 142] | 100 to 500
CC(C)(C)c1nnc(-c2c(C3CCN(c4ccc5c(c4)OCO5)CC3)oc3cc([C@@H](CC(=O)O)C4CC4)ccc23)o1 [Compound 143] | 10 to 100
COc1cccc(N2CCC(c3oc4cc([C@@H](CC(=O)O)C5CC5)ccc4c3-c3cncc(C)c3)CC2)c1 [Compound 144] | > 500
COc1cccc(N2CCC(c3oc4cc([C@@H](CC(=O)O)C5CC5)ccc4c3-c3ccnc(C)c3)CC2)c1 [Compound 145] | 10 to 100
COc1cccc(N2CCC(c3oc4cc([C@@H](CC(=O)O)C5CC5)ccc4c3-c3cc(C)ccn3)CC2)c1 [Compound 146] | 100 to 500
COc1cccc(N2CCC(c3oc4cc([C@@H](CC(=O)O)C5CC5)ccc4c3-c3cccc(C)n3)CC2)c1 [Compound 147] | 10 to 100

Same assay, conditions: 4-hour treatment, class symbols

Structure (SMILES) | Efficacy (%)
CCCC(C)(C)c1nnc(-c2c(C3CCN(c4cccc(OC)c4)CC3)oc3cc(C(CC(=O)O)C4CC4)ccc23)o1 (stereo not shown) [Compound 129] | †† (150 ≥ Efficacy (%) > 100)
CCCCC(C)(C)c1nnc(-c2c(C3CCN(c4cccc(OC)c4)CC3)oc3cc(C(CC(=O)O)C4CC4)ccc23)o1 (stereo not shown) [Compound 130] | †† (150 ≥ Efficacy (%) > 100)
CCCCCC(C)(C)c1nnc(-c2c(C3CCN(c4cccc(OC)c4)CC3)oc3cc(C(CC(=O)O)C4CC4)ccc23)o1 (stereo not shown) [Compound 131] | †† (150 ≥ Efficacy (%) > 100)
COC(=O)C(C)(C)n1cc(-c2c(C3CCN(c4cccc(OC)c4)CC3)oc3cc(C(CC(=O)O)C4CC4)ccc23)cn1 (stereo not shown) [Compound 132] | ††† (Efficacy (%) > 150)
COc1cccc(N2CCC(c3oc4cc(C(CC(=O)O)C5CC5)ccc4c3-c3nnc(-c4ccccc4)o3)CC2)c1 (stereo not shown) [Compound 133] | † (100 ≥ Efficacy (%) > 50)
COc1cccc(N2CCC(c3oc4cc(C(CC(=O)O)C5CC5)ccc4c3-c3nnc(C4(C)CC4)o3)CC2)c1 (stereo not shown) [Compound 134] | † (100 ≥ Efficacy (%) > 50)
COc1cccc(N2CCC(c3oc4cc(C(CC(=O)O)C5CC5)ccc4c3-c3nnc(C(C)(C)CC4CCCCC4)o3)CC2)c1 (stereo not shown) [Compound 135] | †† (150 ≥ Efficacy (%) > 100)
COc1cccc(N2CCC(c3oc4cc(C(CC(=O)O)C5CC5)ccc4c3-c3nnc(C(C)(C)CN4CCCCC4)o3)CC2)c1 (stereo not shown) [Compound 137] | ††† (Efficacy (%) > 150)
COc1cccc(N2CCC(c3oc4cc(C(CC(=O)O)C5CC5)ccc4c3-c3nnc(C45CC6CC(CC(C6)C4)C5)o3)CC2)c1 (stereo not shown) [Compound 139] | †† (150 ≥ Efficacy (%) > 100)
COc1cccc(N2CCC(c3oc4cc(C(CC(=O)O)C5CC5)ccc4c3-c3nnc(C4(C)CCCCC4)o3)CC2)c1 (stereo not shown) [Compound 140] | ††† (Efficacy (%) > 150)
COc1cccc(N2CCC(c3oc4cc([C@@H](CC(=O)O)C5CC5)ccc4c3-c3nnc(C(C)(C)C)o3)CC2)c1F [Compound 141] | ††† (Efficacy (%) > 150)
COc1ccc(F)c(N2CCC(c3oc4cc([C@@H](CC(=O)O)C5CC5)ccc4c3-c3nnc(C(C)(C)C)o3)CC2)c1 [Compound 142] | †† (150 ≥ Efficacy (%) > 100)
CC(C)(C)c1nnc(-c2c(C3CCN(c4ccc5c(c4)OCO5)CC3)oc3cc([C@@H](CC(=O)O)C4CC4)ccc23)o1 [Compound 143] | †† (150 ≥ Efficacy (%) > 100)
COc1cccc(N2CCC(c3oc4cc([C@@H](CC(=O)O)C5CC5)ccc4c3-c3cncc(C)c3)CC2)c1 [Compound 144] | †† (150 ≥ Efficacy (%) > 100)
COc1cccc(N2CCC(c3oc4cc([C@@H](CC(=O)O)C5CC5)ccc4c3-c3ccnc(C)c3)CC2)c1 [Compound 145] | †† (150 ≥ Efficacy (%) > 100)
COc1cccc(N2CCC(c3oc4cc([C@@H](CC(=O)O)C5CC5)ccc4c3-c3cc(C)ccn3)CC2)c1 [Compound 146] | ††† (Efficacy (%) > 150)
COc1cccc(N2CCC(c3oc4cc([C@@H](CC(=O)O)C5CC5)ccc4c3-c3cccc(C)n3)CC2)c1 [Compound 147] | ††† (Efficacy (%) > 150)
